#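 Dose response: 5 concentrations. Exposure: 48 h. Format: 96-well plates. Endpoint: linear interpolation; highest concentration if not reached. Here, GI50 denotes the concentration required for 50% inhibition of growth. Definition used: TGI = concentration required for complete inhibition of growth.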
# How the values were obtained:
# Assay in all cases: inhibition of tumour cell growth, NCI panel, 48 h
# [1] = tested on: 786-0 renal
# [2] = tested on: A549 NSCLC
# [3] = tested on: HOP-62 NSCLC
# [4] = tested on: MALME-3M melanoma
# [5] = tested on: MOLT-4 leukemia
# [6] = tested on: OVCAR-3 ovarian
# [7] = tested on: SNB-75 CNS
# [8] = tested on: SR leukemia
Compound,GI50 [1],TGI [1],GI50 [2],TGI [2],GI50 [3],TGI [3],GI50 [4],TGI [4],GI50 [5],TGI [5],GI50 [6],TGI [6],GI50 [7],TGI [7],GI50 [8],TGI [8]
CCOc1ccc2c(c1)C(=O)c1c-2n(CCCBr)c(=O)c2cc([N+](=O)[O-])ccc12,13.6 µM,> 100 µM,29 µM,> 100 µM,5.81 µM,> 100 µM,40700 nM,> 100 µM,4.18 µM,> 100 µM,23.2 µM,> 100 µM,33900 nM,> 100 µM,554 nM,> 100 µM
CCOC(=O)c1c(C)n(Cc2ccc(Cl)cc2Cl)c2c1cc1oc(=O)c(=O)n3cnc2c13,18.3 µM,34.9 µM,9.71 µM,21.9 µM,15.5 µM,33.1 µM,10400 nM,25.5 µM,3.99 µM,20.7 µM,14.4 µM,31.9 µM,3390 nM,15.3 µM,1090 nM,5.85 µM
CCCCCN(CCCCC)CC(O)c1cc(Cl)ccc1OC (centres undefined),13 µM,27.4 µM,6.61 µM,24.7 µM,12 µM,26.7 µM,6290 nM,21.3 µM,6.94 µM,28.7 µM,10.8 µM,23.6 µM,197 nM,5.83 µM,4780 nM,30.5 µM
CCCn1cnc2c(SCC(=O)O)nc(N)nc21,,> 100 µM,,> 100 µM,,> 100 µM,,> 100 µM,,,,> 100 µM,,> 100 µM,,> 100 µM
CCN1CCN(c2cc(C)nc(N(CCCNc3ccnc4cc(Cl)ccc34)Cc3ccc4c(c3)OCO4)n2)CC1,1.81 µM,3.8 µM,3.67 µM,> 100 µM,2.73 µM,31.6 µM,1870 nM,3.5 µM,2.84 µM,> 100 µM,2.35 µM,6.09 µM,1590 nM,3.57 µM,,
CN(Cc1ccc(C(F)(F)F)cc1)CC(O)C(=O)Nc1ccc(Cl)cc1 (centres undefined),1.44 µM,2.84 µM,1.69 µM,3.16 µM,1.7 µM,3.18 µM,1370 nM,2.81 µM,1.42 µM,3.28 µM,1.55 µM,3.03 µM,1310 nM,2.62 µM,,
O=C1C2=C(C(=O)c3cnccc31)C1C=CC2CC1 (centres undefined),1.95 µM,3.37 µM,3.67 µM,8.73 µM,2.91 µM,6.6 µM,2120 nM,4.45 µM,,,1.85 µM,3.66 µM,1340 nM,2.73 µM,3220 nM,> 21.2 µM
NS(=O)(=O)c1ccc(N2N=C3c4ccccc4CC3C2c2cccs2)cc1 (centres undefined),17.6 µM,41.7 µM,13.1 µM,32.1 µM,16.9 µM,36.8 µM,,,18.9 µM,> 100 µM,24.8 µM,47.8 µM,31100 nM,> 100 µM,,
COc1ccc(C(=O)c2cc3c(N)c(C(=O)Nc4ccccc4)sc3nc2C)cc1,4.73 µM,> 100 µM,0.638 µM,> 100 µM,1.69 µM,> 100 µM,,,0.796 µM,> 100 µM,,,242 nM,5.92 µM,376 nM,> 100 µM
CSc1ncc(Br)c(Sc2nc(N)nc3nc[nH]c23)n1,3.82 µM,> 100 µM,9.77 µM,71.1 µM,2.59 µM,> 100 µM,3340 nM,18.3 µM,,,3.32 µM,11.1 µM,2820 nM,81.4 µM,,
COc1ccc(Nc2nc3ccccc3c3occc23)cc1,5.02 µM,10.8 µM,32.9 µM,> 50 µM,10 µM,23.7 µM,,,,,7.85 µM,> 50 µM,,,663 nM,> 50 µM
O=C(Nc1ccc(F)cc1F)c1cc(Cl)ccc1O,2.71 µM,7.69 µM,1.29 µM,41 µM,1.2 µM,4.37 µM,782 nM,4.76 µM,,,0.955 µM,16.8 µM,1090 nM,3.79 µM,,
O=S1(=O)N(Cc2ccccc2)[C@@H](Cc2ccccc2)[C@H](O)[C@H](O)[C@H](Cc2ccccc2)N1Cc1ccccc1,3.24 µM,6.86 µM,2.99 µM,7.62 µM,3.71 µM,7.34 µM,2750 nM,6.37 µM,2.86 µM,10.2 µM,2.9 µM,6.07 µM,2310 nM,7.28 µM,,

# Source: PubChem BioAssay (NCI)
